From US20240368150A1 (Hoffmann-La Roche Inc., priority 2021, published 2024) come the findings set out here.

Assay [1] has as its system primary human T-cells. Description: Proliferation assay after 5 days (CellTiter-Glo, CD3 stimulation; PBS counter screen). It counts as cell-based. Particulars: CD3 stimulation; for Emax: 5 days, normalized to reference compound A1 as stimulator control = 100%, DMSO neutral control, read-out: Emax proliferation (% activation); for EC50: primary human T-cells, CellTiter-Glo after 5 days, EC50 of fitted sigmoidal curve, read-out: Tcell Proliferation CD3 EC50. In a few lines: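 After compound addition to medium-only plates, cells are cultured 5 days, equilibrated to room temperature, mixed with an equal volume of CellTiter-Glo 2.0 and rocked 15 min before luminescence is read. Signal reflects ATP content, taken as proportional to cell number.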

The test system of assay [2] is primary human T-cells.

Where two headings read alike, the source gives them in different places.

For `CC(C)(CN1CCCC1=O)c1nnc(-c2cc3c(cc2F)S(=O)(=O)C[C@H](N)C(=O)N3Cc2ccc(Cl)cc2)o1` [Example 64, (3R)-3-amino-5-[(4-chlorophenyl)methyl]-7-[5-[1,1-dimethyl-2-(2-oxopyrrolidin-1-yl)ethyl]-1,3,4-oxadiazol-2-yl]-8-fluoro-1,1-dioxo-2,3-dihydro-1λ^6,5-benzothiazepin-4-one], in the assay on primary human T-cells [1] (Homo sapiens, T-cell, 120 h), the Emax is 36% and the EC50 is greater than 10000 nM. For the same compound, in the assay with primary human T-cells [2], the EC50 is 4350 nM.
Turning to `N[C@H]1CS(=O)(=O)c2cc(F)c(-c3ccn[nH]3)cc2N(Cc2ccc(Cl)cc2)C1=O` [Example 37, (3R)-3-amino-5-[(4-chlorophenyl)methyl]-8-fluoro-1,1-dioxo-7-(1H-pyrazol-5-yl)-2,3-dihydro-1λ^6,5-benzothiazepin-4-one], in the assay with primary human T-cells [1] (Homo sapiens, T-cell, 120 h), the Emax worked out at 57% and the EC50 is 15300 nM. The EC50 with primary human T-cells [2] was greater than 20000 nM.
Consider `N[C@H]1C[S+]([O-])c2cc(F)c(-c3noc(N4CCOC5(CC5)C4)n3)cc2N(Cc2ccc(Cl)cc2)C1=O` (single isomer, unassigned; epimer b) [Example 210], for which the figures for the EC50 in the assay with primary human T-cells [1] and with primary human T-cells [2] were 1550 nM and 7170 nM, respectively.
`CC(F)(F)CNC(=O)c1nc(-c2cc3c(cc2F)S(=O)(=O)C[C@H](N)C(=O)N3Cc2ccc(Cl)cc2)no1` [Example 295, 3-[(3R)-3-amino-5-[(4-chlorophenyl)methyl]-8-fluoro-1,1,4-trioxo-2,3-dihydro-1λ^6,5-benzothiazepin-7-yl]-N-(2,2-difluoropropyl)-1,2,4-oxadiazole-5-carboxamide]: the Emax in the assay on primary human T-cells [1] (Homo sapiens, T-cell, 120 h) is 97%. For the same compound, the EC50 with primary human T-cells [1] (Homo sapiens, T-cell, 120 h) is 1390 nM; with primary human T-cells [2] it was 885 nM.
On the same counts, the results for `N[C@H]1CS(=O)(=O)c2cc(F)c(-c3nnc(C4CCOCC4)o3)cc2N(Cc2ccc(Cl)cc2)C1=O` [Example 82, (3R)-3-Amino-5-[(4-chlorophenyl)methyl]-8-fluoro-1,1-dioxo-7-(5-tetrahydropyran-4-yl-1,3,4-oxadiazol-2-yl)-2,3-dihydro-1λ^6,5-benzothiazepin-4-one] are 148%, 728 nM and 631 nM.
As to `COC(=O)N1CCC(OC)(c2nnc(-c3cc4c(cc3F)S(=O)(=O)C[C@H](N)C(=O)N4Cc3ccc(Cl)cc3)o2)CC1` [Example 132, methyl 4-methoxy-4-[5-[(3R)-3-amino-5-[(4-chlorophenyl)methyl]-8-fluoro-1,1,4-trioxo-2,3-dihydro-1λ^6,5-benzothiazepin-7-yl]-1,3,4-oxadiazol-2-yl]-piperidine-1-carboxylate], in the assay with primary human T-cells [1] (Homo sapiens, T-cell, 120 h), the Emax stood at 97% and the EC50 is 150 nM. The same compound came in with an EC50 in the assay with primary human T-cells [2] of 1950 nM.
Take `N[C@H]1CS(=O)(=O)c2cc(F)c(-c3nnc(NC45CC(C4)C5)o3)cc2N(Cc2ccc(Cl)cc2)C1=O` [Example 501, (3R)-3-amino-7-[5-(1-bicyclo[1.1.1]pentanylamino)-1,3,4-oxadiazol-2-yl]-5-[(4-chlorophenyl)methyl]-8-fluoro-1,1-dioxo-2,3-dihydro-1λ^6.5-benzothiazepin-4-one]: in the assay on primary human T-cells [1] (Homo sapiens, T-cell, 120 h), the Emax was found to be 92% and the EC50 was 473 nM. The EC50 with primary human T-cells [2] amounted to 3120 nM.
Turning to `CC(C)(C#N)Nc1nc(-c2cc3c(cc2F)S(=O)(=O)C[C@H](N)C(=O)N3Cc2ccc(Cl)cc2)no1` [Example 199, 2-methyl-2-[[3-[(3R)-3-amino-5-[(4-chlorophenyl)methyl]-8-fluoro-1,1,4-trioxo-2,3-dihydro-1λ^6,5-benzothiazepin-7-yl]-1,2,4-oxadiazol-5-yl]amino]propanenitrile], in the assay on primary human T-cells [1] (Homo sapiens, T-cell, 120 h), the Emax amounted to 71% and the EC50 is 2960 nM. The same compound returned an EC50 in the assay on primary human T-cells [2] greater than 10000 nM.
On the same counts, the results for `CC(=O)N1CCCC(n2nnc(-c3cc4c(cc3F)S(=O)(=O)C[C@H](N)C(=O)N4Cc3ccc(Cl)cc3)n2)C1` (stereo partly drawn) [Example 13, (3R)-7-[2-(1-acetyl-3-piperidyl)tetrazol-5-yl]-3-amino-5-[(4-chlorophenyl)methyl]-8-fluoro-1,1-dioxo-2,3-dihydro-1λ^6,5-benzothiazepin-4-one] are 87%, 3510 nM and greater than 10000 nM.
Turning to `CC(C)(C)c1nnc(-c2cc3c(cc2F)S(=O)(=O)C[C@H](N)C(=O)N3Cc2ccc(OC3CCOC3)cc2)o1` (stereo partly drawn) [Example 221, (3R)-3-amino-7-(5-tert-butyl-1,3,4-oxadiazol-2-yl)-8-fluoro-1,1-dioxo-5-[(4-tetrahydrofuran-3-yloxyphenyl)methyl]-2,3-dihydro-1λ^6,5-benzothiazepin-4-one], in the assay with primary human T-cells [1] (Homo sapiens, T-cell, 120 h), the Emax stood at 107% and the EC50 was determined as 255 nM. The EC50 in the assay with primary human T-cells [2] was 382 nM.
In the case of `COC(C)(c1nnc(-c2ccc3c(c2)N(Cc2ccc(Cl)cc2)C(=O)[C@@H](N)CS3(=O)=O)o1)C(F)(F)F` (stereo partly drawn) [Example 372, (3R)-3-amino-5-[(4-chlorophenyl)methyl]-1,1-dioxo-7-[5-(2,2,2-trifluoro-1-methoxy-1-methyl-ethyl)-1,3,4-oxadiazol-2-yl]-2,3-dihydro-1λ^6,5-benzothiazepin-4-one], the Emax in the assay on primary human T-cells [1] (Homo sapiens, T-cell, 120 h) is 118%. Besides, the EC50 with primary human T-cells [1] (Homo sapiens, T-cell, 120 h) turned out to be 367 nM; in the assay on primary human T-cells [2], 1290 nM.
With `CN1CCCC(C)(c2nnc(-c3cc4c(cc3F)S(=O)(=O)C[C@H](N)C(=O)N4Cc3ccc(Cl)cc3)o2)C1` (stereo partly drawn) [Example 145, (3R)-3-amino-5-[(4-chlorophenyl)methyl]-7-[5-(1,3-dimethyl-3-piperidyl)-1,3,4-oxadiazol-2-yl]-8-fluoro-1,1-dioxo-2,3-dihydro-1λ^6,5-benzothiazepin-4-one], in the assay with primary human T-cells [1] (Homo sapiens, T-cell, 120 h), the Emax came out at 107% and the EC50 worked out at 428 nM. This compound displayed an EC50 with primary human T-cells [2] of 404 nM.
With `N[C@H]1CS(=O)(=O)c2cc(F)c(-c3noc(N4CCOC(C(F)(F)F)C4)n3)cc2N(Cc2ccc(Cl)cc2)C1=O` (stereo partly drawn) [Example 193, (3R)-3-amino-5-[(4-chlorophenyl)methyl]-8-fluoro-1,1-dioxo-7-[5-[2-(trifluoromethyl)morpholin-4-yl]-1,2,4-oxadiazol-3-yl]-2,3-dihydro-1λ^6,5-benzothiazepin-4-one], in the assay on primary human T-cells [1] (Homo sapiens, T-cell, 120 h), the Emax came out at 108% and the EC50 amounted to 21.3 nM. The EC50 in the assay on primary human T-cells [2] was determined as 38.7 nM.
For the compound `CC(C)(C)c1nnc(-c2ccc3c(c2)N(Cc2ccc(Oc4ccc(F)cc4)cc2)C(=O)[C@@H](N)CS3(=O)=O)o1` [Example 439, (3R)-3-amino-7-(5-tert-butyl-1,3,4-oxadiazol-2-yl)-5-[[4-(4-fluorophenoxy)phenyl]methyl]-1,1-dioxo-2,3-dihydro-1λ^6,5-benzothiazepin-4-one], in the assay on primary human T-cells [1] (Homo sapiens, T-cell, 120 h), the Emax came to 138% and the EC50 is 299 nM. The EC50 with primary human T-cells [2] came out at 2100 nM.
With `CC(C)Oc1ccc(CN2C(=O)[C@@H](N)CS(=O)(=O)c3cc(F)c(-c4noc(C5CN(C)CC(F)(F)C5)n4)cc32)cn1` (stereo partly drawn) [Example 347, (3R)-3-amino-7-[5-(5,5-difluoro-1-methyl-3-piperidyl)-1,2,4-oxadiazol-3-yl]-8-fluoro-5-[(6-isopropoxy-3-pyridyl)methyl]-1,1-dioxo-2,3-dihydro-1λ^6,5-benzothiazepin-4-one], in the assay on primary human T-cells [1] (Homo sapiens, T-cell, 120 h), the Emax is 151% and the EC50 worked out at 977 nM. The compound also showed an EC50 with primary human T-cells [2] of 3500 nM.
